As usually defined, the IC50 is the concentration at which inhibition is half-maximal.

Data on 29 compounds can be found in patent publication US11919887B2, “Substituted tetrahydrofurans as modulators of sodium channels” (Vertex Pharmaceuticals Incorporated, priority 2019, dated 2024).

The target of one test is human Nav 1.8 (Homo sapiens, UniProt Q9Y5Y9). The test is described as follows: E-VIPR assay detecting and measuring Nav inhibition (HEK cells expressing truncated human Nav 1.8). Format: cell-based. As to conditions: in the Absence of Human Serum in the E-VIPR Assay. Put shortly: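 HEK cells expressing truncated human Nav1.8, transduced with KIR2.1 BacMam, were loaded with CC2-DMPE/DiSBAC6(3) FRET dyes and tested under electrical stimulation (E-VIPR). Compounds were run as 11-point 3-fold dilutions, top 300 nM final, 0.625% DMSO, with or without 25% human serum.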
Sequence of human Nav 1.8 (Q9Y5Y9 whole entry, looked up, the tested form may be a part): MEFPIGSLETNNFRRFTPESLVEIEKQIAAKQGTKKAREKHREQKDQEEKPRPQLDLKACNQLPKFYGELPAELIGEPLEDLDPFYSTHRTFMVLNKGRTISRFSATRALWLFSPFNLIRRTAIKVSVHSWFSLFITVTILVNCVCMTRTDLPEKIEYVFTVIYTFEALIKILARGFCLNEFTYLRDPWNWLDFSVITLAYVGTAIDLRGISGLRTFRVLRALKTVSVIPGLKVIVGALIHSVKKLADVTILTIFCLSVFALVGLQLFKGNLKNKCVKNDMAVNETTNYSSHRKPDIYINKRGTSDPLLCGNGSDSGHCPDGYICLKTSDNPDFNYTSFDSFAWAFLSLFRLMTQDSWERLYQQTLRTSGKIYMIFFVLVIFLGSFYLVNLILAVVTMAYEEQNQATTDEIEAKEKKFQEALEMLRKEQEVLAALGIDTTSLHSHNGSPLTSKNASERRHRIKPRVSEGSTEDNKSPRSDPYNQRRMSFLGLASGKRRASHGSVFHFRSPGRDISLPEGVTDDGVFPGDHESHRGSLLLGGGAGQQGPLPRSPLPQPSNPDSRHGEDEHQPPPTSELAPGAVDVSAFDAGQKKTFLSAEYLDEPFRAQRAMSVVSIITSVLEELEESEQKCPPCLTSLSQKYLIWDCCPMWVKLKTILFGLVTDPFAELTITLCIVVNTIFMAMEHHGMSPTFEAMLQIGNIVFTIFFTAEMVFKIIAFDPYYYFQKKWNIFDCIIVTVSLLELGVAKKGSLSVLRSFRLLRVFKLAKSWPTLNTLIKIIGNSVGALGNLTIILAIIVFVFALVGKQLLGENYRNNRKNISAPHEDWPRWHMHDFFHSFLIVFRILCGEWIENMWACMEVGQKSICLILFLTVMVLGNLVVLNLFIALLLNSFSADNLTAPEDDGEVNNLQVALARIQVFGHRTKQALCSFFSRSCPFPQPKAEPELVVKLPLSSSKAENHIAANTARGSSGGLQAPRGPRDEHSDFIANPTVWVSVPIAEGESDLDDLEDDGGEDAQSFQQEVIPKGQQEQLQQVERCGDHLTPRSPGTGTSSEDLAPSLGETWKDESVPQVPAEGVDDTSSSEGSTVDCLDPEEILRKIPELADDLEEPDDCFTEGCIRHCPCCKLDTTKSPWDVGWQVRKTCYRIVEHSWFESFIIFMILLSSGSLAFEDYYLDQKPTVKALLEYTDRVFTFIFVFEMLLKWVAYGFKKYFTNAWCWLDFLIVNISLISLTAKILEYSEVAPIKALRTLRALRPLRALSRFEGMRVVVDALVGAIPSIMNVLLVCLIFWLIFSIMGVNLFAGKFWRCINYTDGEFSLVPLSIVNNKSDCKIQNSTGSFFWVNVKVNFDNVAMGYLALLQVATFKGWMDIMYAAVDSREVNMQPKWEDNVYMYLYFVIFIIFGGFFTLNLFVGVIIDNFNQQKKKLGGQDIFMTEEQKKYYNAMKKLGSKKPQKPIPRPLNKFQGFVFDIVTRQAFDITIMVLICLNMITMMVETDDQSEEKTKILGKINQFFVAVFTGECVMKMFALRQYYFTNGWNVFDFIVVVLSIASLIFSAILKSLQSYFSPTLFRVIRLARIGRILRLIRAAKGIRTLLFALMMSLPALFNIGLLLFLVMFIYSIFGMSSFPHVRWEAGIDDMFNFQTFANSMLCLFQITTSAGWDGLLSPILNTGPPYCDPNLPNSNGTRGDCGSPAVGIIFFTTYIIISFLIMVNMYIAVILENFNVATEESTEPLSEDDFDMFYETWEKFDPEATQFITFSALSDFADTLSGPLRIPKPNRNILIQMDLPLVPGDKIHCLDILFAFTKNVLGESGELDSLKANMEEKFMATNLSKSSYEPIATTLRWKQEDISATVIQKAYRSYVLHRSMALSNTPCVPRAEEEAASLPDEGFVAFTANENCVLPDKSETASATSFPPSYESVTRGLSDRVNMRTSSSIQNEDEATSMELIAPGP
As to `[2H]c1cnc(C(N)=O)cc1NC(=O)[C@@H]1O[C@@](C)(C(F)(F)F)[C@@H](C)[C@H]1c1ccc(F)c(F)c1OC` [Compound 124, 5-deuterio-4-[[(2R,3S,4S,5R)-3-(3,4-difluoro-2-methoxy-phenyl)-4,5-dimethyl-5-(trifluoromethyl)tetrahydrofuran-2-carbonyl]amino]pyridine-2-carboxamide], the half-maximal inhibitory concentration (IC50) was < 0.01 µM.

The test is the same for the next values; noted with them: in the Absence of Human Serum in the E-VIPR Assay; read-out: IC50.
Turning to `COc1nc(C(F)F)ccc1[C@H]1[C@H](C(=O)Nc2ccnc(C(N)=O)c2)O[C@@](C)(C(F)(F)F)[C@H]1C` (stereo in doubt) [Compound 140, rel-(2R,3S,4S,5R)-4-[[3-[6-(difluoromethyl)-2-methoxy-3-pyridyl]-4,5-dimethyl-5-(trifluoromethyl)tetrahydrofuran-2-carbonyl]amino]pyridine-2-carboxamide], the IC50 lay in the range of 0.01 to 0.1 µM.

Take `COc1c([C@H]2[C@H](C(=O)Nc3cncc(C(N)=O)c3)O[C@@](C)(C(F)(F)F)[C@H]2C)ccc(F)c1F` [Compound 118, 5-[[(2R,3S,4S,5R)-3-(3,4-difluoro-2-methoxy-phenyl)-4,5-dimethyl-5-(trifluoromethyl)tetrahydrofuran-2-carbonyl]amino]pyridine-3-carboxamide]: the 50% inhibitory concentration (IC50) was < 0.01 µM.

Regarding `COc1c([C@H]2[C@H](C(=O)Nc3cc(C(N)=O)ncc3C)O[C@@](C)(C(F)(F)F)[C@H]2C)ccc(F)c1F` [Compound 119, 4-[[(2R,3S,4S,5R)-3-(3,4-difluoro-2-methoxy-phenyl)-4,5-dimethyl-5-(trifluoromethyl)tetrahydrofuran-2-carbonyl]amino]-5-methyl-pyridine-2-carboxamide], the 50% inhibitory concentration (IC50) was < 0.01 µM.

Turning to `COc1c([C@H]2[C@H](C(=O)Nc3ccnc(C(N)=O)c3)O[C@@](C)(C(F)(F)F)[C@H]2C)cc(Cl)c(F)c1F` [Compound 152, 4-[[(2R,3S,4S,5R)-3-(5-chloro-3,4-difluoro-2-methoxy-phenyl)-4,5-dimethyl-5-(trifluoromethyl)tetrahydrofuran-2-carbonyl]amino]pyridine-2-carboxamide], the IC50 was < 0.01 µM.

In the case of `Cc1c([C@@H]2[C@@H](C(=O)Nc3ccnc(C(N)=O)c3)O[C@@](C)(C(F)(F)F)[C@H]2C)ccc(F)c1F` (stereo in doubt) [Compound 134, rel-(2S,3R,4S,5R)-4-[[3-(3,4-difluoro-2-methyl-phenyl)-4,5-dimethyl-5-(trifluoromethyl)tetrahydrofuran-2-carbonyl]amino]pyridine-2-carboxamide], the IC50 fell in the range of 0.1 to 1 µM.

For `COc1c([C@H]2[C@H](C(=O)Nc3ccnc(C(N)=O)c3)O[C@@](C)(C(F)(F)F)[C@H]2C)cccc1C(F)(F)F` (single isomer, unassigned) [compound 42], the concentration for half-maximal inhibition (IC50) is < 0.01 µM.

The same test, now with this note: in the Presence of Human Serum in the E-VIPR Assay.
In the case of `[2H]C([2H])([2H])Oc1c([C@H]2[C@H](C(=O)Nc3ccnc(C(N)=O)c3)O[C@@](C)(C(F)(F)F)[C@H]2C)ccc(F)c1F` [compound 26], the IC50 is < 0.01 µM.

With `COc1c([C@@H]2[C@@H](C(=O)Nc3ccnc(C(N)=O)c3)O[C@@](C)(C(F)(F)F)[C@@H]2C)ccc(F)c1F` (racemic) [Compound 33, rac-(2S,3R,4R,5R)-4-[[3-(3,4-difluoro-2-methoxy-phenyl)-4,5-dimethyl-5-(trifluoromethyl)tetrahydrofuran-2-carbonyl]amino]pyridine-2-carboxamide], the IC50 lay in the range of 0.1 to 1 µM.

Consider `COc1c([C@@H]2[C@@H](C)[C@](C)(C(F)(F)F)O[C@H]2C(=O)Nc2ccnc(C(N)=O)c2)ccc(F)c1F` (racemic) [Compound 35, rac-(2R,3S,4R,5R)-4-[[3-(3,4-difluoro-2-methoxy-phenyl)-4,5-dimethyl-5-(trifluoromethyl)tetrahydrofuran-2-carbonyl]amino]pyridine-2-carboxamide], for which the IC50 is 0.1 to 1 µM.

Consider `COc1c([C@@H]2[C@@H](C(=O)Nc3ccnc(C(N)=O)c3)O[C@](C)(C(F)(F)F)[C@@H]2C)ccc(F)c1F` [Compound 6, (2S,3R,4R,5S)-4-[[3-(3,4-difluoro-2-methoxy-phenyl)-4,5-dimethyl-5-(trifluoromethyl)tetrahydrofuran-2-carbonyl]amino]pyridine-2-carboxamide], for which the half-maximal inhibitory concentration (IC50) is > 1 µM.

Staying with this test, now noted: in the Presence of Human Serum in the E-VIPR Assay; read-out: IC50.
For `COc1c([C@H]2C[C@@H](C(F)(F)F)O[C@@H]2C(=O)Nc2ccnc(C(N)=O)c2)ccc(F)c1F` (stereo in doubt) [Compound 109, rel-(2S,3R,5S)-4-[[3-(3,4-difluoro-2-methoxy-phenyl)-5-(trifluoromethyl)tetrahydrofuran-2-carbonyl]amino]pyridine-2-carboxamide], the half-maximal inhibitory concentration (IC50) is > 1 µM.

For the compound `CNC(=O)c1cc(NC(=O)[C@@H]2O[C@@](C)(C(F)(F)F)[C@@H](C)[C@H]2c2ccc(F)cc2OC(F)F)ccn1` (single isomer, unassigned) [Compound 30], the IC50 lay within 0.1 to 1 µM.

As to `COc1c([C@@H]2C[C@@](C)(C(C)(F)F)O[C@H]2C(=O)Nc2ccnc(C(N)=O)c2)ccc(F)c1F` (single isomer, unassigned) [Compound 84], the IC50 is > 1 µM.

With `COc1c([C@H]2C[C@@](C)(CC(F)(F)F)O[C@@H]2C(=O)Nc2ccnc(C(N)=O)c2)ccc(F)c1F` (single isomer, unassigned) [Compound 82], the 50% inhibitory concentration (IC50) was > 1 µM.

Take `CNC(=O)c1cc(NC(=O)[C@H]2O[C@@](C)(C(F)(F)F)C[C@@H]2c2ccc(F)c(Cl)c2OC)ccn1` (single isomer, unassigned) [Compound 61]: the IC50 fell in the range of 0.1 to 1 µM.

For `C[C@@H]1[C@H](c2ccc(F)cc2OC(F)F)[C@@H](C(=O)Nc2ccnc(C(N)=O)c2)O[C@]1(C)C(F)(F)F` (stereo in doubt) [Compound 1, rel-(2S,3R,4R,5S)-4-[[3-[2-(difluoromethoxy)-4-fluoro-phenyl]-4,5-dimethyl-5-(trifluoromethyl)tetrahydrofuran-2-carbonyl]amino]pyridine-2-carboxamide], the IC50 is 0.01 to 0.1 µM.

With `Cc1c(F)ccc([C@@H]2C[C@](C)(C(F)(F)F)O[C@H]2C(=O)Nc2ccnc(C(N)=O)c2)c1F` (single isomer, unassigned) [Compound 76], the IC50 lay in the range of 0.1 to 1 µM.

For the compound `COc1c([C@@H]2[C@@H](C(=O)Nc3ccnc(C(N)=O)c3)O[C@@](C)(C(F)F)[C@H]2C)ccc(F)c1F` (stereo in doubt) [Compound 97, rel-(2S,3R,4S,5R)-4-[[3-(3,4-difluoro-2-methoxy-phenyl)-5-(difluoromethyl)-4,5-dimethyl-tetrahydrofuran-2-carbonyl]amino]pyridine-2-carboxamide], the concentration for half-maximal inhibition (IC50) is > 1 µM.

Turning to `COc1c([C@@H]2[C@@H](C(=O)Nc3ccnc(C(N)=O)c3)O[C@](C)(C(F)F)[C@@H]2C)ccc(F)c1F` (stereo in doubt) [Compound 98, rel-(2S,3R,4R,5S)-4-[[3-(3,4-difluoro-2-methoxy-phenyl)-5-(difluoromethyl)-4,5-dimethyl-tetrahydrofuran-2-carbonyl]amino]pyridine-2-carboxamide], the half-maximal inhibitory concentration (IC50) was > 1 µM.

On to `C[C@H]1[C@@H](c2ccc(F)c(F)c2O)[C@H](C(=O)Nc2cc[n+]([O-])c(C(N)=O)c2)O[C@@]1(C)C(F)(F)F` [Compound 57, 4-[[(2R,3S,4S,5R)-3-(3,4-difluoro-2-hydroxy-phenyl)-4,5-dimethyl-5-(trifluoromethyl)tetrahydrofuran-2-carbonyl]amino]-1-oxido-pyridin-1-ium-2-carboxamide], for which the half-maximal inhibitory concentration (IC50) is > 1 µM.

As for `COc1c([C@@H]2C[C@](C)(C(F)(F)F)O[C@H]2C(=O)Nc2ccnc(C(N)=O)c2)ccc(F)c1F` (stereo in doubt) [Compound 5, rel-(2R,3S,5R)-4-[[3-(3,4-difluoro-2-methoxy-phenyl)-5-methyl-5-(trifluoromethyl)tetrahydrofuran-2-carbonyl]amino]pyridine-2-carboxamide], the IC50 lay within 0.01 to 0.1 µM.

With `COc1c([C@H]2[C@H](C(=O)Nc3ccnc(C(N)=O)c3)O[C@@](C)(C(F)(F)F)[C@H]2C)ccc(F)c1C(F)F` (single isomer, unassigned) [Compound 44], the IC50 was < 0.01 µM.

For `CNC(=O)c1cc(NC(=O)[C@H]2O[C@](C)(C(F)(F)F)[C@H](C)[C@@H]2c2ccc(F)cc2OC(F)F)ccn1` (single isomer, unassigned) [Compound 29], the IC50 was > 1 µM.

On to `C[C@@H]1[C@H](c2ccc(F)c(F)c2OC(F)F)[C@@H](C(=O)Nc2ccnc(C(N)=O)c2)O[C@]1(C)C(F)(F)F` [Compound 10, (2S,3R,4R,5S)-4-[[3-[2-(difluoromethoxy)-3,4-difluoro-phenyl]-4,5-dimethyl-5-(trifluoromethyl)tetrahydrofuran-2-carbonyl]amino]pyridine-2-carboxamide], for which the half-maximal inhibitory concentration (IC50) was > 1 µM.

Turning to `COc1nc(C(F)(F)F)ccc1[C@@H]1[C@@H](C(=O)Nc2ccnc(C(N)=O)c2)O[C@](C)(C(F)(F)F)[C@@H]1C` (stereo in doubt) [Compound 137, rel-(2S,3R,4R,5S)-4-[[3-[2-methoxy-6-(trifluoromethyl)-3-pyridyl]-4,5-dimethyl-5-(trifluoromethyl)tetrahydrofuran-2-carbonyl]amino]pyridine-2-carboxamide], the IC50 is > 1 µM.

For `C[C@]1(C(F)(F)F)C[C@@H](c2ccc(F)cc2OC(F)F)[C@H](C(=O)Nc2ccnc(C(N)=O)c2)O1` [compound 74], the IC50 is 0.01 to 0.1 µM.

As for `C[C@H]1[C@@H](c2ccc(F)c(F)c2OC(F)F)[C@H](C(=O)Nc2ccc(F)c(C(N)=O)c2)O[C@@]1(C)C(F)(F)F` (single isomer, unassigned) [Compound 14], the half-maximal inhibitory concentration (IC50) is > 1 µM.

Turning to `COc1cc(F)ccc1[C@@H]1[C@@H](C(=O)Nc2ccnc(C(N)=O)c2)O[C@](C)(C(F)(F)F)[C@@H]1C` (single isomer, unassigned) [Compound 3b], the IC50 was < 0.01 µM.
